Measured values taken from patent publication US8822700B2, “Hepatitis C virus inhibitors” (Enanta Pharmaceuticals, Inc., priority 2009, dated 2014).

system: HCV 1b genotype replicon; assay: HCV replicon assay (qRT-PCR or luciferase), genotype 1b; format: cell-based; settings: Hepatitis C virus; HCV 1b replicon cell lines (SGR 11-7 or Huh-luc/neo-ET); qRT-PCR or luciferase readout; two labels in one cell = mixture of the two compounds tested; read-out: Genotype-1b replicon EC50 Range
Description: HCV replicon cell lines (kindly provided by R. Bartenschlager) isolated from colonies as described by Lohman et. al. (Lohman et al. (1999) Science 285: 110-113, expressly incorporated by reference in its entirety) and used for all experiments. The HCV replicon has the nucleic acid sequence set forth in EMBL Accession No.: AJ242651, the coding sequence of which is from nucleotides 1801 to 8406.
The coding sequence of the published HCV replicon was synthesized and subsequently assembled in a modified plasmid pBR322 (Promega, Madison, Wis.) using standard molecular biology techniques. One replicon cell line (“SGR 11-7”) stably expresses HCV replicon RNA which consists of (i) the HCV 5′UTR fused to the first 12 amino acids of the capsid protein, (ii) the neomycin phosphotransferase gene (neo), (iii) the IRES from encephalomyocarditis virus (EMCV), and (iv) HCV NS2 to NS5B genes and the HCV 3′UTR. Another replicon cell line (“Huh-luc/neo-ET”) described by Vrolijk et. al. (Vrolijk et. al. (2003) Journal of Virological Methods 110:201-209, expressly incorporated by reference in its entirety) stably expresses HCV replicon RNA which consists of (i) the HCV 5′UTR fused to the first 12 amino acids of the capsid protein, (ii) the firefly luciferase reporter gene, (iii) the ubiquitin gene, (iv) the neomycin phosphotransferase gene (neo), (v) the IRES from encephalomyocarditis virus (EMCV), and (vi) HCV NS3 to NS5B genes that harbor cell culture adaptive mutations (E1202G, T1280I, K1846T) and the HCV 3′UTR.
These cell lines were maintained at 37° C., 5% CO2, 100% relative humidity in DMEM (Cat#11965-084, Invitrogen), with 10% fetal calf serum (“FCS”, Invitrogen), 1% non-essential amino acids (Invitrogen), 1% of Glutamax (Invitrogen), 1% of 100× penicillin/streptomycin (Cat#15140-122, Invitrogen) and Geneticin (Cat#10131-027, Invitrogen) at 0.75 mg/ml or 0.5 mg/ml for 11-7 and Huh-luc/neo-ET cells, respectively.
EC50 values of single agent compounds and combinations were determined by HCV RNA detection using quantitative RT-PCR, according to the manufacturer's instructions, with a TAQMAN® One-Step RT-PCR Master Mix Reagents Kit (Cat# AB 4309169, Applied Biosystems) on an ABI Model 7500 thermocycler. The TaqMan primers used for detecting and quantifying HCV RNA were obtained from Integrated DNA Technologies. HCV RNA was normalized to GAPDH RNA levels in drug-treated cells, which was detected and quantified using the Human GAPDH Endogenous Control Mix (Applied Biosystems, AB 4310884E). Total cellular RNA was purified from 96-well plates using the RNAqueous 96 kit (Ambion, Cat# AM1812). Chemical agent cytotoxicity was evaluated using an MTS assay according to the manufacturer's directions (Promega).
Since clinical drug resistance often develops in viral infections following single agent therapies, there is a need to assess the additive, antagonistic, or synergistic properties of combination therapies. We use the HCV replicon system to assess the potential use of the compound of the present invention or in combination therapies with Interferon alpha, cyclosporine analogs and inhibitors targeting other HCV proteins. The acute effects of a single or combinations of drugs are studied in the “Huh-luc/neo-ET” replicon with each chemical agent titrated in an X or Y direction in a 6 point two-fold dilution curve centered around the EC50 of each drug. Briefly, replicon cells are seeded at 7,000 cells per well in 90 ul DMEM (without phenol red, Invitrogen Cat.#31053-036) per well with 10% FCS, 1% non-essential amino acids, 1% of Glutamax and 1% of 100× penicillin/streptomycin and incubated overnight at 37° C., 5% CO2, 100% relative humidity. […]

First: COC(=O)N[C@H](C(=O)N[C@@H]1CCC[C@H]1NC(=O)c1ccc(-c2ccc(-c3c[nH]c(C4CCCN4C(=O)[C@@H](NC(=O)OC)C(C)C)n3)cc2)cc1)C(C)C (mixture of isomers) [367a and 367b]
Second: COC(=O)N[C@H](C(=O)N[C@@H]1CCC[C@H]1NC(=O)c1ccc(-c2ccc(-c3c[nH]c([C@@H]4CCCN4C(=O)[C@@H](NC(=O)OC)C(C)C)n3)cc2)cc1)C(C)C [Example 369]
The EC50 of the first is lower: less than 1 nM for the first, greater than 10 nM for the second. The first is the more potent here.

`COC(=O)N[C@H](C(=O)N[C@H]1CCC[C@@H]1C(=O)Nc1ccc(-c2ccc(-c3c[nH]c([C@@H]4CCCN4C(=O)[C@@H](NC(=O)OC)C(C)C)n3)cc2)cc1)C(C)C` (racemic) [349a and 349b] and `COC(=O)N[C@H](C(=O)N1CCC(C(=O)Nc2ccc(-c3ccc(-c4c[nH]c([C@@H]5CCCN5C(=O)[C@@H](NC(=O)OC)C(C)C)n4)cc3)cc2)C1)C(C)C` (stereo partly shown) [Example 355] fall in the same range of EC50: 1 to 10 nM for the first, 1 to 10 nM for the second.

Compared with `COC(=O)N[C@H](C(=O)NC[C@H]1CCCN1C(=O)c1ccc(-c2ccc(-c3cnc([C@@H]4CCCN4C(=O)[C@@H](NC(=O)OC)C(C)C)[nH]3)cc2)cc1)C(C)C` [Example 381], `COC(=O)N[C@H](C(=O)N1CCC[C@H]1CNC(=O)c1ccc(-c2ccc(-c3cnc([C@@H]4CCCN4C(=O)[C@@H](NC(=O)OC)C(C)C)[nH]3)cc2)cc1)C(C)C` [Example 257] is lower in EC50: greater than 10 nM for the first, less than 1 nM for the second. The second is the more potent here.

`COC(=O)N[C@H](C(=O)N1CCC(C(=O)Nc2ccc(-c3ccc4[nH]c([C@@H]5CCCN5C(=O)[C@@H](NC(=O)OC)C(C)C)nc4c3)cc2)C1)C(C)C` (stereo partly shown) [Example 363] and `COC(=O)N[C@H](C(=O)N1CC[C@H](C(=O)Nc2ccc3cc(-c4ccc5[nH]c([C@@H]6CCCN6C(=O)[C@@H](NC(=O)OC)C(C)C)nc5c4)ccc3c2)C1)C(C)C` [Example 327] cannot be ordered by EC50: greater than 10 nM for the first, greater than 10 nM for the second.

`COC(=O)N[C@H](C(=O)N1CC[C@H](NC(=O)c2ccc(-c3ccc(-c4c[nH]c([C@@H]5CCCN5C(=O)[C@@H](NC(=O)OC)C(C)C)n4)cc3)cc2)C1)C(C)C` [Example 372] and `COC(=O)N[C@H](C(=O)N1CC[C@@H](NC(=O)c2ccc(-c3ccc(-c4c[nH]c([C@@H]5CCCN5C(=O)[C@@H](NC(=O)OC)C(C)C)n4)cc3)cc2)C1)C(C)C` [Example 352] fall in the same range of EC50: 1 to 10 nM for the first, 1 to 10 nM for the second.

First: COC(=O)N[C@H](C(=O)N1CCC[C@@H]1CNC(=O)c1ccc(-c2ccc(-c3cnc([C@@H]4CCCN4C(=O)[C@@H](NC(=O)OC)C(C)C)[nH]3)cc2)cc1)C(C)C [Example 380]
Second: COC(=O)N[C@H](C(=O)N1CCC[C@@H](C(=O)Nc2ccc(-c3ccc(-c4cnc([C@@H]5CCCN5C(=O)[C@@H](NC(=O)OC)C(C)C)[nH]4)cc3)cc2)C1)C(C)C (racemic) [382a and 382b]
The EC50 of the first is higher: 1 to 10 nM for the first, less than 1 nM for the second. The second is the more potent here.

First: COC(=O)N[C@H](C(=O)N1CC[C@H](C(=O)Nc2ccc(-c3ccc(-c4cnc([C@@H]5CCCN5C(=O)[C@@H](NC(=O)OC)C(C)C)[nH]4)cc3)cc2)C1)C(C)C [Example 83]
Second: COC(=O)N[C@H](C(=O)N1CC[C@@H](C(=O)Nc2ccc(-c3ccc(-c4c[nH]c([C@@H]5CCCN5C(=O)[C@@H](NC(=O)OC)C(C)C)n4)cc3)cc2)C1)C(C)C [Example 374]
The EC50 of the first is higher: 1 to 10 nM for the first, less than 1 nM for the second.

`COC(=O)N[C@H](C(=O)N[C@@H]1CCC[C@H]1NC(=O)c1ccc(-c2ccc(-c3ccc4[nH]c([C@@H]5CCCN5C(=O)[C@@H](NC(=O)OC)C(C)C)nc4c3)cc2)cc1)C(C)C` (racemic) [371a and 371b] and `COC(=O)N[C@H](C(=O)O[C@@H]1CCC[C@H]1NC(=O)c1ccc(-c2ccc(-c3c[nH]c([C@@H]4CCCN4C(=O)[C@@H](NC(=O)OC)C(C)C)n3)cc2)cc1)C(C)C` (racemic) [377a and 377b] cannot be ordered by EC50: less than 1 nM for the first, less than 1 nM for the second.

First: COC(=O)N[C@H](C(=O)N1CC[C@H](C(=O)Nc2ccc3cc(-c4ccc(-c5c[nH]c([C@@H]6CCCN6C(=O)[C@@H](NC(=O)OC)C(C)C)n5)cc4)ccc3c2)C1)C(C)C [Example 365]
Second: COC(=O)N[C@H](C(=O)N1CC[C@H](C(=O)Nc2ccc(-c3ccc(-c4c[nH]c([C@@H]5CCCN5C(=O)[C@@H](NC(=O)OC)C(C)C)n4)cc3)cn2)C1)C(C)C [Example 379]
The EC50 of the first is higher: 1 to 10 nM for the first, less than 1 nM for the second. The second is the more potent here.

Compound `COC(=O)N[C@H](C(=O)N1CCC[C@H]1CNC(=O)c1cccc(-c2ccc3cc(-c4c[nH]c([C@@H]5CCCN5C(=O)[C@@H](NC(=O)OC)C(C)C)n4)ccc3c2)c1)C(C)C` [Example 361] has an EC50 of 1 to 10 nM.
